Source: patent US8623196B2 (priority 2007, dated 2014)
Where “and” joins values, the source holds several entries; their conditions need not be identical. Equal values may be shown once.

Assays:
[1] = target: NEST (recombinant esterase domain of NTE) (Homo sapiens, UniProt Q8IY17); assay type: biochemical
acetylcholinesterase = assay: Bi-enzyme electrode of tyrosinase and acetylcholinesterase: current response to substrate; assay type: biochemical; conditions: for Average sensitivity: tyrosinase/acetylcholinesterase electrode
tyrosinase [2] = assay type: biochemical; conditions: for Average sensitivity (control experiments): PLL-Tyr bilayers without an esterase layer
Alkaline phosphatase = assay: Bi-enzyme electrode of tyrosinase and alkaline phosphatase: current response to substrate; assay type: biochemical; conditions: Table 1-2 lower part
NEST = target: T1, NEST (Homo sapiens, UniProt Q8IY17); assay: NEST biosensor: amperometric response to phenyl valerate; assay type: biochemical; conditions: for Average sensitivity: tyrosinase/NEST electrode
T1 construct: recombinant esterase domain of NTE (NEST) of the present invention comprising amino acid residues 727-1216 of NTE; histidine tag; made in house; host or cells: E. coli BL21(DE3), pET-21b vector
T1 sequence (Q8IY17 775-1264): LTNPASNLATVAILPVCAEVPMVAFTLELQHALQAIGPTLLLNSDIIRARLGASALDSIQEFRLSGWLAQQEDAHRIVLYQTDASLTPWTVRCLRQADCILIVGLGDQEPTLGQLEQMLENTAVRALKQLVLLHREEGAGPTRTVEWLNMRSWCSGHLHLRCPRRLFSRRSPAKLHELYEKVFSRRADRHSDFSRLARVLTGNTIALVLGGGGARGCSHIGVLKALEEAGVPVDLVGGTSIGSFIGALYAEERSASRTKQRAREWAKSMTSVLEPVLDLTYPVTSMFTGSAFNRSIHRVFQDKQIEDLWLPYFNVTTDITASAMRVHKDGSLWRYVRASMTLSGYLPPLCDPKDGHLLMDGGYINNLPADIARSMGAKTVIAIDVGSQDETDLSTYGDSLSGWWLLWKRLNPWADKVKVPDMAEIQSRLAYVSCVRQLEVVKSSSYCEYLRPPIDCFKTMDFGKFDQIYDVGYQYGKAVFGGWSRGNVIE

butyrylcholinesterase = assay: Bi-enzyme electrode of tyrosinase and butyrylcholinesterase: current response to substrate; assay type: biochemical
tyrosinase [3] = assay type: biochemical; conditions: NEST biosensor, 0.1 M phosphate buffer pH 7.0, −0.1 V
tyrosinase [4] = target: tyrosinase (Agaricus bisporus, UniProt C7FF04); conditions: read-out: apparent Michaelis constant Km^app; cited from earlier work
Sequence of tyrosinase (Agaricus bisporus, UniProt C7FF04) (C7FF04 1-392): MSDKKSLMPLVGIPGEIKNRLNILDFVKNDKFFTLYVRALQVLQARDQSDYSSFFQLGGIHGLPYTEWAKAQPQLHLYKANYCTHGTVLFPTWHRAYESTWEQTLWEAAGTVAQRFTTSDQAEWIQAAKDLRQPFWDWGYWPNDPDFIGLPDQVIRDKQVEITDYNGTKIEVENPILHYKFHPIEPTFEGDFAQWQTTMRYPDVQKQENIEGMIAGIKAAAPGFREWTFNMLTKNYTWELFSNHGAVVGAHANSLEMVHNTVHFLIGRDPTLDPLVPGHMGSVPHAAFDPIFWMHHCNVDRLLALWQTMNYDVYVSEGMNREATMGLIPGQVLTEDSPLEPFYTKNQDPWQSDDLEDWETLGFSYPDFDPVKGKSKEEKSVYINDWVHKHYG

## O=S(=O)(F)Cc1ccccc1 [PMSF, phenylmethylsulfonyl fluoride]
[1]
  drop in current after addition of NEST inhibitor (dose dependence): dose-dependent response

## CC(=O)Oc1ccccc1 [Phenyl acetate, phenyl acetate]
acetylcholinesterase; Table 1-2 lower part
  Average sensitivity: 180 ± 8 nAμM^−1cm^−2
acetylcholinesterase; Table 1-2 upper part
  Average sensitivity: 180 ± 25 nAμM^−1cm^−2
Tyrosinase [2]
  Average sensitivity (control experiments): 0.4 nAμM^−1cm^−2

## O=P(O)(O)Oc1ccccc1 [Phenyl phosphate]
Alkaline phosphatase
  Average sensitivity: 236 ± 10 nAμM^−1cm^−2
Tyrosinase [2]
  Average sensitivity (control experiments): 0.3 nAμM^−1cm^−2

## CCCCC(=O)Oc1ccccc1 [Phenyl valerate, phenyl valerate]
NEST; 0.1 M phosphate buffer, pH 7.0, −0.1 V vs Ag/AgCl
  concentration at which response reached saturation: approximately 30 μM
NEST; Table 1-2 lower part
  Average sensitivity: 88 ± 6 nAμM^−1cm^−2
NEST; Table 1-2 upper part
  Average sensitivity: 87 ± 8 nAμM^−1cm^−2
NEST; phenyl valerate 4 μM, n=10 electrodes
  mean current: approximately 348 nA cm^−2
NEST; signal-to-noise ratio of three
  limit of detection: 0.5 µM
acetylcholinesterase; used as substrate instead of phenyl acetate
  rise in current with substrate: no significant rise in current
butyrylcholinesterase; Table 1-2 lower part
  Average sensitivity: 70 ± 5 nAμM^−1cm^−2
butyrylcholinesterase; Table 1-2 upper part
  Average sensitivity: 25 ± 10 nAμM^−1cm^−2
Tyrosinase [2]
  Average sensitivity (control experiments): 0.5 nAμM^−1cm^−2 and 0.3 nAμM^−1cm^−2
Tyrosinase [2]; electrode with poly-L-lysine and tyrosinase bilayers without NEST
  rise in steady state current on addition of substrate: relatively very small rise in steady state current

## Oc1ccccc1O [catechol]
Tyrosinase [3]
  sensitivity: 2.5±0.1 μAμM^−1 cm^−2
Tyrosinase [4]
  Km: ~220 µM

## Oc1ccccc1 [phenol]
Tyrosinase [3]
  Average sensitivity: ~410±30 nAμM^−1 cm^−2
Tyrosinase [4]
  Km: ~250 µM
